# Data: the METLIN SMRT retention time set (Domingo-Almenara et al. 2019)
# Assay: gradient 5% acetonitrile 3 min, to 50% in 2 min, to 85% in 15 min, held 3 min, 100 µL/min
# Details: column: Zorbax Extend-C18 2.1 x 50 mm; eluents: water / acetonitrile, 0.1% formic acid
# Procedure, shortened: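 Pure standards were run in mixtures of ~100 molecules by HPLC coupled to a quadrupole time-of-flight mass spectrometer. The column was a Zorbax Extend-C18 (2.1 × 50 mm, 1.8 μm) at 100 μL/min, with water and acetonitrile each containing 0.1% formic acid, in positive and negative ionization mode. Dead and dwell volumes were 40 μL and 900 μL. Retention time was taken from computationally picked adduct peaks, each manually inspected, with data collected over 3 months.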
row,Compound,RP-LC retention time [s]
1,CCn1cnc(S(=O)(=O)N2CCC(C(=O)NC3CCCCCC3)CC2)c1,737
2,Cc1cccc2nnc(N3CCN(C(=O)c4ccc(Cl)cc4)CC3)n12,629
3,Cc1cccc(NC(=O)C2CCCN2S(=O)(=O)c2cc3c(cc2Cl)NC(=O)CO3)c1C (stereo not given),891
4,CC(C)NC(=O)N1CC(c2nc(-c3cccnc3)no2)C2(CCOCC2)C1 (stereo not given),635
5,O=C(NCc1cccc(C(F)(F)F)c1)C1CCCN(c2nccnc2Sc2ccccc2)C1 (stereo not given),1100
6,CN1C(=O)c2cc(C(=O)Nc3ccccc3Br)nn2CC1(C)C(=O)NC1CCCCC1 (stereo not given),807
7,Cc1cc(N2CCC(NC(=O)Nc3cccc(Cl)c3F)C2=O)ccc1F (stereo not given),945
8,O=C(CCn1cnc2c(-c3ccccc3)noc2c1=O)NCCCN1CCc2ccccc2C1,679
9,Cc1noc([C@@H]2CC(F)(F)CN2C(=O)c2ccco2)n1,706
10,COc1cc(CCC(=O)N2CC(c3noc(C4CCCN4C)n3)C2)on1 (stereo not given),570
11,CCc1ccccc1NC(=O)C1CCc2sc(C(=O)N(C)C)cc2C1 (stereo not given),738
12,Cc1nc(N2CCOCC2)c2c(C)c(C(=O)Nc3cccc(Cl)c3C)sc2n1,885
13,O=C(Cn1nc2c(N3CCc4ccccc4C3)nccn2c1=O)NC1CCCCC1,865
14,Cn1ncc2c(N3CCCCC3)nc(C(=O)N3CCN(c4ccccc4Cl)CC3)nc21,1030
15,O=C(Cc1nc(-c2ccccc2)n[nH]1)NC1CCCCC1,714
16,CC(=O)Nc1ccc(OC[C@](C)(O)C(=O)Nc2ccc([N+](=O)[O-])c(C(F)(F)F)c2)cc1,858
17,O=c1[nH]c(-c2cccc(O)c2)nc2sc3c(c12)CCCC3,830
18,COC(=O)C1C(=O)C2=C(CC1C)NC(C)=C(C(=O)OCCOC(C)C)C2c1ccccc1F (stereo not given),914
19,COCCNC(=O)C1CN(C(=O)c2ccco2)CC1c1ccc(OC)cc1OC (stereo not given),922
20,COCCn1cc2c3c(cccc31)CN(C(=O)NCCC(C)C)CC2,912
21,CCNC(=O)C1(C)CC(c2ccccc2)=NO1 (stereo not given),732
22,NC(=O)CSc1nnc(N2CCN(C(=O)c3ccccc3Cl)CC2)s1,596
23,Cc1nn(-c2cc(N3CCCC3)ncn2)c(C)c1CCC(=O)N1CCN(c2ccccn2)CC1,587
24,CCc1noc(C2CCCCN2CC(=O)NCCc2cccs2)n1 (stereo not given),794
25,O=C(c1cnccn1)N1CC(c2nc(CCOCC3CCCC3)no2)C1,601
26,CC1CCCCN1S(=O)(=O)c1ccc(C(=O)Nc2nc3c(s2)CCc2ccccc2-3)cc1 (stereo not given),1270

row,Compound,RP-LC retention time [s]
1,Cn1nc(C(=O)N2CCCC(C(=O)NC3CC3)C2)c2c1CCN(C(=O)Cc1cccc(F)c1)C2 (stereo not given),666
2,O=C(NCC1CN(CC2CC2)CC12CCCCC2)Nc1ccc(F)cc1 (stereo not given),687
3,Cc1ccsc1C(=O)NCC1CN(C(C)C)CC12CCCCC2 (stereo not given),652
4,CCC(C)NC(=O)NCCC1CCN(S(=O)(=O)c2ccc(C)cc2)CC1 (stereo not given),861
5,COc1cc(OC)c(OC)cc1/C=C\c1ccnc2ccccc12,679
6,Cn1nc(C(=O)N2CCN3CCS(=O)(=O)N(C4CC4)C(=O)C3C2)c2ccccc21 (stereo not given),748
7,O=C(c1cncc(NS(=O)(=O)c2ccc(Cl)cc2)c1)N1CCCc2ccccc21,880
8,CC(C)N1CCC(c2nnc3n2CCN(S(=O)(=O)c2ccccc2C(F)(F)F)C3)C1 (stereo not given),631
9,Cc1ccc(-c2nc3n(CC(=O)NC4CC4)c4c(c(=O)n3n2)CCC4)cc1,702
10,Cc1c(C(=O)N2CCOCC2)sc2nc(-c3ccccc3)c(NC(C)(C)C)n12,778
11,CC(=O)Nc1ccccc1SC(CC(=O)c1ccco1)c1ccc2c(c1)OCO2 (stereo not given),858
12,Cc1nnc(C2CC3(CCN(CCCO)CC3)CN2CCc2ccccc2)o1 (stereo not given),572
13,COc1ccc(-c2nc3n(n2)C2(CCCCC2)[C@@H]2CCCC[C@@H]2N3C(=O)C2CC2)cc1,682
14,CC1=C(c2ccc(C)c(C)c2)S(=O)(=O)N=C1N1CCCN(C(=O)NC(C)(C)C)CC1,888
15,COCCc1nncn1C1CCN(S(=O)(=O)c2ccc(Cl)c(C)c2)CC1,769
16,CCOC(=O)c1cc(C)n(CC(=O)N2CCOCCNC(=O)CC2)c1C,652
17,CCCNc1cc(N2CCC(CCC(=O)N3CCN(c4ncccn4)CC3)CC2)ncn1,632
18,Cc1cc2c(cc1C(=O)NCc1ccc3c(c1)CCCO3)OCCCO2,872
19,Cc1cc(=O)n(CC(=O)N2CCc3ccccc32)c(N2CCCC2)n1,664
20,C=CCN1C(=O)C(C)(C)COc2cc(NS(=O)(=O)C3CCCCC3)ccc21,932
21,S=c1cc(N2CCSCC2)[nH]cn1,602
22,CCCCNc1cc(Cl)nc(N)n1,690
23,COc1ccc(C2CCCN2C(=O)c2cc(C)on2)cc1 (stereo not given),786
24,Cc1ccccc1-c1nc(-c2ccc(N3CCSCC3)nc2)no1,1320
25,O=C(c1ccco1)N1CCC(n2cnnc2-c2ccccc2)CC1,639

# Next, values leading:
row,RP-LC retention time [s],Compound
1,756,CCCNC(=O)C1CCN(c2nc3ccsc3c(=O)n2Cc2ccccc2)CC1
2,848,COC(=O)c1c(NCCCc2ccccc2)c2cc(F)ccc2[nH]c1=O
3,1140,CC(C)c1ccc(NC(=O)C(=O)c2cn(CC(=O)N3CCCC3)c3ccccc23)cc1
4,1100,Cc1ccc(S(=O)(=O)N2CCCN(C)c3ccccc32)cc1F
5,864,O=C(c1cccc(Br)c1)N1CCN(c2cc(-c3ccc(F)cc3)[nH]n2)CC1
6,599,CCc1nc(N)n(CC(=O)Nc2ccccc2F)c(=O)c1C
7,583,COc1ccc(-c2ccc(C#N)c(SCC(=O)N3CCN(C)CC3)n2)cc1
8,908,CCOc1ccc(-c2noc(CSc3nccn3-c3ccc(C)cc3)n2)cc1OC
9,593,CC(=O)Nc1ccc(S(=O)(=O)N2CCN(c3cnn4c(C)nnc4c3)CC2)cc1
10,703,COc1ccc(CCN2C(=O)CC(Sc3ccccc3C(=O)O)C2=O)cc1OC (stereo not given)
11,1140,CC(C)Cc1ccc(S(=O)(=O)N2CCC(C(=O)NCc3csc(-c4ccccc4)n3)CC2)cc1
12,615,CCN(Cc1ccc(Cl)cc1)Cc1cc(=O)n2ccccc2n1
13,996,Cc1cccc(NC(=O)c2cn(CC(=O)NC3CCCC3)c3nc(C)ccc3c2=O)c1
14,669,CC(C)n1c(=O)c(NCc2ccc(F)cc2)nc2ccncc21
15,958,CSc1ccc(CNC(=O)Cn2ccc3ccc(N4CCOCC4)nc32)cc1
16,954,CCOc1ccc(-n2ccn3cc(-c4ccc(Br)cc4)nc3c2=O)cc1
17,744,O=C(Nc1ccc(F)c(Cl)c1)N1CCCC(Cn2c(C3CC3)nc3cccnc32)C1 (stereo not given)
18,648,Cn1cc(-c2ccncc2)cc1C(=O)NCc1ccc(F)cc1F
19,960,COc1ccc(-c2noc(C3CCCN3C(=O)c3c(OC)cccc3OC)n2)cc1 (stereo not given)
20,1180,Cc1ccc(-n2ncc3c(=O)n(Cc4nc(-c5cccc(C(F)(F)F)c5)no4)cnc32)cc1

row,RP-LC retention time [s],Compound
1,795,Cn1ccc2ccn(CC(=O)Nc3ccc(Br)cc3)c(=O)c21
2,757,COCCCNC(=O)c1ccc(-c2ccc(Oc3ccccc3)nn2)cc1
3,872,CCn1nc(C(=O)Nc2nc3c(OC)ccc(C)c3s2)cc1C
4,534,COCCn1c(CCCC(=O)NCc2cccnc2)nc2cccnc21
5,967,CCOc1ccccc1-c1noc(Cn2c(=O)n(-c3cccc(F)c3)c(=O)c3sccc32)n1
6,689,CC(C)CN1C(=O)c2cccn2CC1CNC(=O)c1n[nH]c(=O)c2ccccc12 (stereo not given)
7,778,Cc1cccc(-c2ncccc2CNS(=O)(=O)c2ccc(Cl)cc2)c1
8,717,Cn1c(=O)c(=O)n(CC(=O)NCc2cccc(Br)c2)c2cccnc21
9,686,O=C(NCc1ccc(F)c(Cl)c1)C1CCN(c2nnc3ccccn23)CC1
10,1130,COc1nc2c(c(C)nn2-c2ccccc2)c(C)c1CCC(=O)NCCc1c[nH]c2ccccc12
11,1260,CCOc1ccc(NC(=O)Cc2c(C)nn(-c3nc(-c4ccc(Cl)cc4)cs3)c2C)cc1
12,1210,COc1ccc(Br)c2c1-c1nc(NC(=O)c3cccc(F)c3)sc1C2
13,665,CCN1CCN(c2nc3cc(C(=O)OC)ccc3c(=O)n2-c2cccc(Cl)c2)CC1
14,656,Cc1nnc2c(=O)n(CC(=O)NCc3ccc(F)cc3)c3cccnc3n12
15,1010,COc1cccc(CNC(=O)C2CCCN(c3nc4ccccc4nc3OC)C2)c1 (stereo not given)
16,757,CCCNC(=O)CCc1nc2ccccc2n(CC(=O)Nc2cccc(OC)c2)c1=O
17,988,Cc1onc(-c2ccc(Br)cc2)c1C(=O)NCc1cccs1
18,955,CC(C(=O)Nc1nc(-c2ccccc2)cs1)N1C(=O)C2C3C=CC(C3)C2C1=O (stereo not given)
19,1050,Cc1noc(C)c1-c1ccc(S(=O)(=O)N2CCc3ccccc3C2)cc1
